We go through ten molecules from patent US9376376B2, “Substitute diphenylamine compounds use thereof as antitumor agents” (SINOCHEM CORPORATION, priority 2012, dated 2016).

One assay concerns lung cancer A549 cell. The assay can be described thus: In vitro cell inhibition assay (MTT method), A549. It is filed as cell-based, human. Conditions: 48 h incubation. How it is done: (§1) The human cancer cell lines used for this assay were lung cancer A549 and leukemia HL-60.
(§2) The A549 or HL-60 cells were picked up from cell incubator, after washed for twice using PBS, cells were digested by 0.25% trypsin, and then add medium to terminate the digestion. After cells were collected using centrifuge and re-suspended, count cells under inverted microscope and add medium to make a density was 5×10^4 cells/mL. After 100 μL aliquots were added to each well of 96-well microtiter plates, cells were cultured in 5% incubator for overnight at 37° C., then the different concentration compounds were added to each well. After incubation for 48 h, MTT solution was added to each well and plates were then incubated for 4 h. The MTT tetrazolium was reduced to formazan by living cells. Then the formazan crystals were dissolved though adding DMSO to each well. The absorbance was read at 570 nm with a microplate reader.
For orientation: Tetrazolium dyes change colour on reduction, which living cells bring about.

A further assay relates to leukemia HL-60 cells. The assay is described as follows: In vitro cell inhibition assay (MTT method), HL-60. It is filed as cell-based, human. Conditions: 48 h. How it is done:
as §1, §2

As for `Cc1cc([N+](=O)[O-])cc([N+](=O)[O-])c1Nc1c(Cl)cc(C#N)cc1Cl` [Compound 30-104], the “Proliferation inhibitory effect of the compounds on A549 cell (% of Control)” value is listed as 2.4 % of Control in the assay on lung cancer A549 cell (0.01 μM); 1.1 % of Control in the assay on lung cancer A549 cell (0.1 μM); −0.1 % of Control with lung cancer A549 cell (1 μM); 78.4 % of Control in the assay with lung cancer A549 cell (10 μM); 91.8 % of Control with lung cancer A549 cell (100 μM). Besides, the “Proliferation inhibitory effect of the compounds on HL-60 cells (% of Control)” value was 21.8 % of Control in the assay with leukemia HL-60 cells (concentration 0.01 μM); 31.6 % of Control in the assay with leukemia HL-60 cells (concentration 0.1 μM); 65.3 % of Control in the assay with leukemia HL-60 cells (concentration 1 μM); 88.0 % of Control with leukemia HL-60 cells (concentration 10 μM); 93.3 % of Control with leukemia HL-60 cells (concentration 100 μM).

Take `N#Cc1cc(Cl)c(Nc2c(Cl)c(Cl)c(C#N)c(Cl)c2C#N)c(Cl)c1` [Compound 6-98]: the “Proliferation inhibitory effect of the compounds on A549 cell (% of Control)” value is −2.5 % of Control with lung cancer A549 cell (0.01 μM); −0.7 % of Control in the assay on lung cancer A549 cell (0.1 μM); 11.7 % of Control with lung cancer A549 cell (1 μM); 90.1 % of Control in the assay with lung cancer A549 cell (10 μM); 93.2 % of Control with lung cancer A549 cell (100 μM). Moreover, the “Proliferation inhibitory effect of the compounds on HL-60 cells (% of Control)” value in the assay with leukemia HL-60 cells (concentration 0.01 μM) was −2.5 % of Control; with leukemia HL-60 cells (concentration 0.1 μM), 10.1 % of Control; in the assay with leukemia HL-60 cells (concentration 1 μM), 30.0 % of Control; in the assay on leukemia HL-60 cells (concentration 10 μM), 91.7 % of Control; in the assay on leukemia HL-60 cells (concentration 100 μM), 95.1 % of Control.

`Cc1c(Cl)c([N+](=O)[O-])cc([N+](=O)[O-])c1Nc1c(Cl)cc(C(F)(F)F)cc1Cl` [Compound 22-101]: the “Proliferation inhibitory effect of the compounds on A549 cell (% of Control)” value with lung cancer A549 cell (0.01 μM) was 13.7 % of Control; with lung cancer A549 cell (0.1 μM), 21.4 % of Control; in the assay with lung cancer A549 cell (1 μM), 19.1 % of Control; with lung cancer A549 cell (10 μM), 66.4 % of Control; in the assay with lung cancer A549 cell (100 μM), 97.5 % of Control. Besides, the “Proliferation inhibitory effect of the compounds on HL-60 cells (% of Control)” value in the assay on leukemia HL-60 cells (concentration 0.01 μM) is 8.3 % of Control; in the assay on leukemia HL-60 cells (concentration 0.1 μM), 5.5 % of Control; with leukemia HL-60 cells (concentration 1 μM) it was 48.6 % of Control; in the assay with leukemia HL-60 cells (concentration 10 μM), 73.4 % of Control; in the assay with leukemia HL-60 cells (concentration 100 μM), 64.7 % of Control.

As to `N#Cc1c(Cl)c(Cl)c(Nc2c(Br)cc([N+](=O)[O-])cc2Br)c(C#N)c1Cl` [Compound 6-114], the “Proliferation inhibitory effect of the compounds on A549 cell (% of Control)” value in the assay with lung cancer A549 cell (0.01 μM) is 10.1 % of Control; in the assay on lung cancer A549 cell (0.1 μM), 2.8 % of Control; in the assay with lung cancer A549 cell (1 μM) it was 11.5 % of Control; with lung cancer A549 cell (10 μM), 82.1 % of Control; with lung cancer A549 cell (100 μM) it was 94.9 % of Control. Besides, the “Proliferation inhibitory effect of the compounds on HL-60 cells (% of Control)” value with leukemia HL-60 cells (concentration 0.01 μM) is given as −0.4 % of Control; in the assay on leukemia HL-60 cells (concentration 0.1 μM), 10.0 % of Control; in the assay with leukemia HL-60 cells (concentration 1 μM), 20.7 % of Control; with leukemia HL-60 cells (concentration 10 μM), 87.5 % of Control; with leukemia HL-60 cells (concentration 100 μM), 93.2 % of Control.

For the molecule `Cc1c(Cl)c([N+](=O)[O-])cc([N+](=O)[O-])c1Nc1c(F)cc(Cl)cc1F` [Compound 22-93], the “Proliferation inhibitory effect of the compounds on A549 cell (% of Control)” value in the assay on lung cancer A549 cell (0.01 μM) is listed as −2.2 % of Control; with lung cancer A549 cell (0.1 μM) it was −1.8 % of Control; in the assay on lung cancer A549 cell (1 μM) it was −0.2 % of Control; with lung cancer A549 cell (10 μM), 73.7 % of Control; with lung cancer A549 cell (100 μM), 91.4 % of Control. Further, the “Proliferation inhibitory effect of the compounds on HL-60 cells (% of Control)” value is reported as −3.6 % of Control in the assay with leukemia HL-60 cells (concentration 0.01 μM); −7.1 % of Control in the assay with leukemia HL-60 cells (concentration 0.1 μM); 6.8 % of Control in the assay on leukemia HL-60 cells (concentration 1 μM); 70.4 % of Control in the assay on leukemia HL-60 cells (concentration 10 μM); 95.4 % of Control in the assay on leukemia HL-60 cells (concentration 100 μM).

For `N#Cc1c(Cl)c(Cl)c(Nc2cc(C(F)(F)F)ccc2F)c(C#N)c1Cl` [Compound 6-35], the “Proliferation inhibitory effect of the compounds on A549 cell (% of Control)” value is 0.5 % of Control with lung cancer A549 cell (0.01 μM); −0.8 % of Control with lung cancer A549 cell (0.1 μM); 1.0 % of Control in the assay with lung cancer A549 cell (1 μM); 58.6 % of Control in the assay with lung cancer A549 cell (10 μM); 92.7 % of Control in the assay with lung cancer A549 cell (100 μM). The “Proliferation inhibitory effect of the compounds on HL-60 cells (% of Control)” value in the assay with leukemia HL-60 cells (concentration 0.01 μM) is −8.3 % of Control; in the assay on leukemia HL-60 cells (concentration 0.1 μM) it was −5.0 % of Control; in the assay on leukemia HL-60 cells (concentration 1 μM) it was −1.8 % of Control; in the assay on leukemia HL-60 cells (concentration 10 μM) it was 72.3 % of Control; with leukemia HL-60 cells (concentration 100 μM) it was 89.9 % of Control.

As for `Cc1cc([N+](=O)[O-])cc([N+](=O)[O-])c1Nc1c(Cl)cc(Cl)cc1C#N` [Compound 30-120], the “Proliferation inhibitory effect of the compounds on A549 cell (% of Control)” value with lung cancer A549 cell (0.01 μM) is −1.5 % of Control; in the assay with lung cancer A549 cell (0.1 μM), −0.9 % of Control; with lung cancer A549 cell (1 μM) it was −0.7 % of Control; in the assay with lung cancer A549 cell (10 μM), 84.0 % of Control; in the assay with lung cancer A549 cell (100 μM) it was 92.0 % of Control. Further, the “Proliferation inhibitory effect of the compounds on HL-60 cells (% of Control)” value in the assay with leukemia HL-60 cells (concentration 0.01 μM) was 23.6 % of Control; in the assay with leukemia HL-60 cells (concentration 0.1 μM), 39.2 % of Control; with leukemia HL-60 cells (concentration 1 μM), 70.6 % of Control; in the assay with leukemia HL-60 cells (concentration 10 μM) it was 95.9 % of Control; in the assay on leukemia HL-60 cells (concentration 100 μM) it was 95.7 % of Control.

For the molecule `Cc1c(Cl)c([N+](=O)[O-])cc([N+](=O)[O-])c1Nc1c(Cl)cc(Cl)cc1C#N` [Compound 22-120], the “Proliferation inhibitory effect of the compounds on A549 cell (% of Control)” value is reported as 0.8 % of Control in the assay on lung cancer A549 cell (0.01 μM); 0 % of Control in the assay on lung cancer A549 cell (0.1 μM); 9.8 % of Control in the assay with lung cancer A549 cell (1 μM); 86.8 % of Control in the assay on lung cancer A549 cell (10 μM); 92.1 % of Control in the assay with lung cancer A549 cell (100 μM). Also, the “Proliferation inhibitory effect of the compounds on HL-60 cells (% of Control)” value is given as 9.6 % of Control in the assay on leukemia HL-60 cells (concentration 0.01 μM); 20.5 % of Control in the assay with leukemia HL-60 cells (concentration 0.1 μM); 19.7 % of Control in the assay with leukemia HL-60 cells (concentration 1 μM); 63.1 % of Control in the assay with leukemia HL-60 cells (concentration 10 μM); 61.0 % of Control in the assay on leukemia HL-60 cells (concentration 100 μM).

Turning to `Cc1c(Cl)c([N+](=O)[O-])cc([N+](=O)[O-])c1Nc1c(F)cccc1F` [Compound 22-33], the “Proliferation inhibitory effect of the compounds on A549 cell (% of Control)” value in the assay with lung cancer A549 cell (0.01 μM) is given as −1.6 % of Control; with lung cancer A549 cell (0.1 μM) it was −1.1 % of Control; with lung cancer A549 cell (1 μM), 61.3 % of Control; in the assay on lung cancer A549 cell (10 μM) it was 78.7 % of Control; in the assay with lung cancer A549 cell (100 μM), 90.3 % of Control. Moreover, the “Proliferation inhibitory effect of the compounds on HL-60 cells (% of Control)” value in the assay with leukemia HL-60 cells (concentration 0.01 μM) was −4.9 % of Control; in the assay on leukemia HL-60 cells (concentration 0.1 μM) it was −1.8 % of Control; in the assay with leukemia HL-60 cells (concentration 1 μM), 54.3 % of Control; with leukemia HL-60 cells (concentration 10 μM) it was 66.2 % of Control; in the assay with leukemia HL-60 cells (concentration 100 μM) it was 81.2 % of Control.

Consider `N#Cc1c(Cl)c(Cl)c(Nc2c(Cl)cc([N+](=O)[O-])cc2Br)c(C#N)c1Cl` [Compound 6-113], for which the “Proliferation inhibitory effect of the compounds on A549 cell (% of Control)” value with lung cancer A549 cell (0.01 μM) was 9.2 % of Control; in the assay on lung cancer A549 cell (0.1 μM), 2.9 % of Control; in the assay with lung cancer A549 cell (1 μM) it was 2.6 % of Control; in the assay with lung cancer A549 cell (10 μM), 75.6 % of Control; with lung cancer A549 cell (100 μM) it was 93.7 % of Control. In addition, the “Proliferation inhibitory effect of the compounds on HL-60 cells (% of Control)” value is −3.8 % of Control with leukemia HL-60 cells (concentration 0.01 μM); 8.8 % of Control in the assay with leukemia HL-60 cells (concentration 0.1 μM); 9.3 % of Control in the assay with leukemia HL-60 cells (concentration 1 μM); 85.4 % of Control in the assay on leukemia HL-60 cells (concentration 10 μM); 93.1 % of Control with leukemia HL-60 cells (concentration 100 μM).
